Measured values reported in patent publication US9546144B2, “Bifunctional compounds” (University of Pittsburgh—of the Commonwealth System of …, priority 2011, dated 2017).

Experiments:
C57BL/6NTac mice = assay: radiation pulmonary fibrosis and survival after 20 Gy thoracic irradiation; assay type: in vivo, mouse; details: in drinking water
Source text: FIG. 23. MMS350 in drinking water decreases fibrosis in the lungs of thoracic irradiated (20 Gy) mice.
For lung irradiation, mice were irradiated to the thoracic cavity with shielding of the head and neck region and abdomen and lower body according to published methods. Animals received 20 Gy single fraction thoracic irradiation and were then maintained according to IACUC directed laboratory conditions. Mice were sacrificed at serial time points after thoracic irradiation including pre-irradiation, days 2, 7, 14, 28, 50, 75, 100, 110, 150 and 200 post-irradiation. Lungs were removed and sagittal sections assayed for percent of lung replaced by fibroblasts and organizing alveolitis according to published methods.
Lungs from irradiated and luc+ cell line injected mice were removed and serial sectioned. Sections were stained for luc+, GFP+ cells, BrdU incorporation, and for quantitation of percent lung replaced by fibrosis (organizing alveolitis) according to published methods.
Mice were injected intra-peritoneally with MMS350 or JP4-039 (GS-nitroxide) in 50% cremphor/50% ethanol according to published methods. For long-term administration of MMS350, the drug was administered in water bottles with bottles changed every 7 days. The dose of drug per bottle was 100 μM MMS350 starting on day 88. […]

[1] = test system: fibrosis associated gene transcripts in lung; assay: RT-PCR of gene transcripts in lungs of 20 Gy thoracic irradiated mice; assay type: in vivo, mouse; details: 100 μM in drinking water continuously from day 80 after 20 Gy
Description: FIGS. 20A-20D. MMS350 decreases levels of irradiation induced endothelial and alveolar cell specific RNA levels. Endothelial and alveolar cells were isolated from the lungs of irradiated control or MMS350 treated mice at days 0, 29, 150, and 200 after 20 Gy thoracic irradiation. […] RNA was isolated and RT-PCR was performed for gene expression for: FIG. 20A oxidative stress induced promoters; FIG. 20B endothelial and alveolar cell markers; FIG. 20C fibrosis associated genes; and FIG. 20D endothelial cell markers. […]
FIGS. 21A-21C. […] Expression of BD1, BD2, BD3, and BRDT was determined.
Measurement of Levels of Gene Transcripts for Irradiation Inducible Promoters, Growth Factors, Inflammatory Cytokines, Adhesion Molecules microRNA, and Bromodomain Epigenetic Reader Proteins by RT-PCR
RNA was extracted from mouse lung or purified cell populations using the TRIzol reagent (Invitrogen, Carlsbad, Calif.) following the manufacturer's instructions, quantified using a spectrophotometer, and stored at −80° C. […]
Data for each gene were normalized by calculating the differences (ΔCt) from the Ct-GUSB and Ct-Target genes. Subsequently, the relative increase or decrease in expression was calculated by comparing the reference gene with the target gene (ΔΔCt) and using the formula for relative expression (=2^ΔΔCt). […]

SMILES: CC1(C[S+]([O-])CC2(C)COC2)COC1 [compound 3, 3,3′-Sulfinylbis(methylene)bis(3-methyloxetane)]
- survival of thoracic irradiated mice (C57BL/6NTac mice): significantly increased survival
- fibrosis phase mRNA expression [1]: decreased expression of fibrosis phase mRNA expression
